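The compound was tested at five concentrations on cells cultured in 96-well plates, with a 48-hour exposure period. GI50 is the concentration that inhibits growth by half. Definition used: TGI = concentration required for complete inhibition of growth.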
What was measured:
Experiment in all cases: NCI anticancer screen, dose series, 48 h
[1] = tested on: NCI-H522 lung
[2] = tested on: UACC-257 melanoma
[3] = tested on: SNB-19 CNS
[4] = tested on: NCI-H460 lung
[5] = tested on: OVCAR-3 ovarian
[6] = tested on: NCI-H23 lung
[7] = tested on: MDA-MB-231 breast
[8] = tested on: LOX IMVI melanoma
[9] = tested on: HOP-62 NSCLC
[10] = tested on: RXF 393 renal
[11] = tested on: 786-0 renal
[12] = tested on: EKVX NSCLC
[13] = tested on: A549 NSCLC
[14] = tested on: SF-295 CNS
[15] = tested on: MDA-MB-435
[16] = tested on: KM12 colon
[17] = tested on: HS 578T breast
[18] = tested on: K-562 leukemia
[19] = tested on: HT29 colon
[20] = tested on: TK-10 renal
[21] = tested on: SR leukemia
[22] = tested on: HOP-92 NSCLC
[23] = tested on: MOLT-4 leukemia
[24] = tested on: OVCAR-4 ovarian
[25] = tested on: HCC-2998 colon
[26] = tested on: MCF7 breast
[27] = tested on: CCRF-CEM leukemia
[28] = tested on: SK-MEL-28 melanoma

`CN(C)CCCNc1nc2ccccc2c2c(=O)c3cc(F)ccc3sc12` was tested, and the GI50 [1] was 1890 nM, the TGI [1] was 3980 nM and the GI50 [2] was 2080 nM. It also gave a TGI [2] of 4210 nM, a GI50 [3] of 1650 nM and a TGI [3] of 3080 nM. It also gave a GI50 [4] of 1760 nM, a TGI [4] of 3440 nM and a GI50 [5] of 1670 nM. It also gave a TGI [5] of 3170 nM, a GI50 [6] of 1670 nM and a TGI [6] of 3170 nM. It also gave a GI50 [7] of 1370 nM, a TGI [7] of 2750 nM and a GI50 [8] of 1630 nM. The TGI [8] was 3050 nM, the GI50 [9] was 1980 nM and the TGI [9] was 4200 nM. For the same compound, the GI50 [10] was 1460 nM, the TGI [10] was 2910 nM and the GI50 [11] was 1470 nM. The TGI [11] was 3020 nM, the GI50 [12] was 1590 nM and the TGI [12] was 3240 nM. It also gave a GI50 [13] of 2040 nM, a TGI [13] of 4810 nM and a GI50 [14] of 1780 nM. The TGI [14] was 3270 nM, the GI50 [15] was 1740 nM and the TGI [15] was 3360 nM. It also gave a GI50 [16] of 1740 nM, a TGI [16] of 3300 nM and a GI50 [17] of 1660 nM. For the same compound, the TGI [17] was 3560 nM, the GI50 [18] was 2330 nM and the TGI [18] was 8350 nM. It also gave a GI50 [19] of 1700 nM, a TGI [19] of 3710 nM and a GI50 [20] of 1900 nM. The TGI [20] was 3670 nM, the GI50 [21] was 4010 nM and the TGI [21] was greater than 100000 nM. For the same compound, the GI50 [22] was 1170 nM, the TGI [22] was 3960 nM and the GI50 [23] was 2130 nM. For the same compound, the TGI [23] was 4480 nM, the GI50 [24] was 2000 nM and the TGI [24] was 4350 nM. For the same compound, the GI50 [25] was 1670 nM, the TGI [25] was 3240 nM and the GI50 [26] was 1130 nM. The TGI [26] was 2660 nM, the GI50 [27] was 2230 nM and the TGI [27] was 5310 nM. It also gave a GI50 [28] of 1760 nM and a TGI [28] of 3190 nM.

Source: PubChem BioAssay (NCI)
